Test results: US8563588B2, “Imidazolone derivatives, method for the preparation thereof and biological applications” (Universite de Rennes 1, priority 2007, dated 2013)
Like-named read-outs stand apart in the source and are kept apart here.

Target: Rat recombinant DYRK1A (Rattus norvegicus, UniProt Q63470)
Assay: Assaying of the kinase activity of DYRK1A (33P-ATP, myelin basic protein, P81 filter);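 note: GST fusion rat DYRK1A made in E. coli, scintillation counting of label bound to substrate, activity as percent of the inhibitor-free maximum after blank subtraction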
Type: biochemical
[1] = 15 μM ATP, 30° C., 30 min, read-out: IC50 DYRK1A

IC50 [1] | Compound | also measured
260 nM | CC(O)c1cccc(NC2=N/C(=C\c3ccc4c(c3)OCO4)C(=O)N2C)c1 (racemic) [MADE36] | –
> 10000 nM | CCCNC1=N/C(=C\c2ccccc2)C(=O)N1C [FCFD08] | –
1600 nM | C=CCNC1=N/C(=C\c2ccc3c(c2)OCO3)C(=O)N1C [FCFD13] | –
> 10000 nM | CCCNC1=N/C(=C\c2cc(OC)c(OC)c(OC)c2)C(=O)N1C [FCFD14] | –
> 10000 nM | CC(C)CNC1=N/C(=C\c2ccc3c(c2)OCO3)C(=O)N1C [FCFD24] | –
2300 nM | CCCNC1=N/C(=C\c2ccc3c(c2)OCO3)C(=O)N1C [FCJR405, (5Z)-5-Benzo[1,3]dioxol-5-ylmethylene-3-methyl-2-propylamino-3,5-dihydroimidazol-4-one] | –
1800 nM | CCCCNC1=N/C(=C\c2ccc3c(c2)OCO3)C(=O)N1C [FCJR457] | –
> 10000 nM | CCCCNC1=N/C(=C\c2ccc3c(c2)OCO3)C(=O)N1CCCC [FCJR464] | –
690 nM | CN1C(=O)/C(=C/c2ccc3c(c2)OCO3)N=C1Nc1ccccc1O [MADE9] | –
1400 nM | COC(CNC1=N/C(=C\c2ccc3c(c2)OCO3)C(=O)N1C)OC [MADE10] | –
> 10000 nM | COC(=O)NCCNC1=N/C(=C\c2ccc3c(c2)OCO3)C(=O)N1C [MADE24] | –
940 nM | CN1C(=O)/C(=C/c2ccc3c(c2)OCO3)N=C1Nc1ccc(O)c(C(=O)O)c1 [MADE33] | –
860 nM | CN1C(=O)/C(=C/c2ccc3c(c2)OCO3)N=C1Nc1ccc(CC(=O)O)cc1 [MADE34] | –
230 nM | CN1C(=O)/C(=C/c2ccc3c(c2)OCO3)N=C1Nc1cccc(CO)c1 [MADE37] | –
730 nM | CN1C(=O)/C(=C/c2ccc3c(c2)OCO3)N=C1NCCO [MADE40] | –
71 nM | O=C1NC(Nc2ccccc2)=N/C1=C\c1ccc2c(c1)OCO2 [MADE44] | –
790 nM | CN1C(=O)/C(=C/c2ccc3c(c2)OCO3)N=C1NCC(O)CO (stereo not shown) [MADE47] | –
> 10000 nM | CCCCN1C(=O)/C(=C/c2ccc3c(c2)OCO3)N=C1SCC [SB05] | –
> 10000 nM | CCCCN1C(=O)/C(=C/c2ccc3c(c2)OCO3)N=C1SCc1ccccc1 [SB10] | –
3400 nM | C=CCSC1=N/C(=C\c2ccc3c(c2)OCO3)C(=O)N1C [SB14] | –
900 nM | C#CCSC1=N/C(=C\c2ccc3c(c2)OCO3)C(=O)N1C [SB16] | –
> 10000 nM | C#CCSC1=N/C(=C\c2ccc3c(c2)OCO3)C(=O)N1CCCC [SB22] | –
> 10000 nM | C=CCSC1=N/C(=C\c2ccc3c(c2)OCO3)C(=O)N1CCCC [SB25] | –

IC50 [1] | Compound | also measured
1400 nM | CCSC1=N/C(=C\c2ccc3c(c2)OCO3)C(=O)N1C [SB26, (5Z)-5-(1,3-benzodioxol-5-ylmethylene)-3-methyl-2-(ethylthio)-3,5-dihydro-4H-imidazol-4-one] | –
5700 nM | CN1C(=O)/C(=C/c2ccc3c(c2)OCO3)N=C1SCc1ccccc1 [SB28] | –
> 10000 nM | CCSC1=N/C(=C\c2ccc(OC)c(OC)c2)C(=O)N1C [SB55] | –
> 10000 nM | CCSC1=N/C(=C\c2cc(OC)cc(OC)c2)C(=O)N1C [SB56] | –
> 10000 nM | CCCCN1C(=O)/C(=C/c2ccc(OC)c(OC)c2)N=C1SCC [SB58] | –
> 10000 nM | CCCCN1C(=O)/C(=C/c2ccc3c(c2)OCO3)N=C1SCc1ccc([N+](=O)[O-])cc1 [SB60] | –
> 10000 nM | CCCCN1C(=O)/C(=C/c2cc3c(cc2Br)OCO3)N=C1SCC [SB80] | –
1700 nM | CC(C)CCNC1=N/C(=C\c2ccc3c(c2)OCO3)C(=O)N1C [ST025] | –
> 10000 nM | CN1C(=O)/C(=C/c2ccc(O)cc2)NC1=S [ST076] | –
6700 nM | CSC1=N/C(=C\c2ccc(O)cc2)C(=O)N1C [ST078] | –
> 10000 nM | CN1C(=O)/C(=C/c2ccc3c(c2)OC(F)(F)O3)NC1=S [ST089] | –
> 10000 nM | CCSC1=N/C(=C\c2ccc3c(c2)OC(F)(F)O3)C(=O)N1C [ST091] | –
> 10000 nM | CCCNC1=N/C(=C\c2ccc3c(c2)OC(F)(F)O3)C(=O)N1C [ST092] | –
1800 nM | CCCSC1=N/C(=C\c2ccc3c(c2)OCO3)C(=O)N1C [ST094] | –
1300 nM | CC(C)SC1=N/C(=C\c2ccc3c(c2)OCO3)C(=O)N1C [ST097] | –
6800 nM | CSC1=N/C(=C\c2ccc3c(c2)OCO3)C(=O)N1C [ST099] | –
2300 nM | CCCCSC1=N/C(=C\c2ccc3c(c2)OCO3)C(=O)N1C [ST101] | –
1500 nM | CN1C(=O)/C(=C/c2ccc3c(c2)OCO3)N=C1SCC1CC1 [ST102] | –
590 nM | CCCCSC1=N/C(=C\c2ccc3c(c2)OCO3)C(=O)N1 [ST124] | –
500 nM | O=C1NC(SCC2CC2)=N/C1=C\c1ccc2c(c1)OCO2 [ST130] | –
460 nM | CC(C)SC1=N/C(=C\c2ccc3c(c2)OCO3)C(=O)N1 [ST135] | –
780 nM | O=C1NC(SCC2CCC2)=N/C1=C\c1ccc2c(c1)OCO2 [ST142] | –

The next lines start with the compound.

Compound | IC50 [1] | also measured
CCSC1=N/C(=C\c2c[nH]c3ccccc23)C(=O)N1C [FB08] | > 10000 nM | –
CCCSC1=N/C(=C\c2c[nH]c3ccccc23)C(=O)N1C [FB14] | > 10000 nM | –
CCCCSC1=N/C(=C\c2c[nH]c3ccccc23)C(=O)N1C [FB17] | > 10000 nM | –
CNC1=N/C(=C\c2ccc3c(c2)OCO3)C(=O)N1C [FC084] | – | IC50 (IC50 DYRK1A): 2700 nM
CNC1=N/C(=C\c2ccc3c(c2)OCO3)C(=O)N1 [FC085] | 1700 nM | –
CCNC1=N/C(=C\c2ccc3c(c2)OCO3)C(=O)N1C [FC088] | 900 nM | –
CCNC1=N/C(=C\c2ccc3c(c2)OCO3)C(=O)N1 [FC090, (5Z)-5-Benzo[1,3]dioxol-5-ylmethylene-2-ethylamino-3,5-dihydro-4H-imidazol-4-one] | 1100 nM | –
CC(C)NC1=N/C(=C\c2ccccc2)C(=O)N1C [FC095] | > 10000 nM | –
CN1C(=O)/C(=C/c2ccc3c(c2)OCO3)N=C1NCc1ccccc1 [FC097] | 1400 nM | –
COCCNC1=N/C(=C\c2ccc3c(c2)OCO3)C(=O)N1C [FC103] | 1200 nM | –
COc1cc(/C=C2\N=C(NC(C)C)N(C)C2=O)cc(OC)c1OC [FC104b] | > 10000 nM | –
CN1C(=O)/C(=C/c2ccc3c(c2)OCO3)N=C1NCC1CC1 [FC107] | 980 nM | –
CC(C)NC1=N/C(=C\c2ccccn2)C(=O)N1C [FC109] | > 10000 nM | –
O=C1NC(NCC2CC2)=N/C1=C\c1ccc2c(c1)OCO2 [FC114] | 500 nM | –
CCCNC1=N/C(=C\c2ccc3c(c2)OCO3)C(=O)N1 [FC126] | 890 nM | –
CC(C)NC1=N/C(=C\c2ccc3c(c2)OCO3)C(=O)N1C [FCJR232] | – | IC50 (IC50 DYRK1A, 15 μM ATP, 30° C., 30 min): 1300 nM
CC(=O)NC1=N/C(=C\c2ccc3c(c2)OCO3)C(=O)N1C [IA24] | > 10000 nM | –
CN1C(=O)/C(=C/c2ccc3c(c2)OCO3)N=C1NC(=O)Cc1ccccc1 [IA25] | > 10000 nM | –
CN1C(=O)/C(=C/c2ccc3c(c2)OCO3)N=C1NC(=O)C(C)(C)C [IA31] | 3400 nM | –
C=CC(=O)NC1=N/C(=C\c2ccc3c(c2)OCO3)C(=O)N1C [IA32] | 15000 nM | –
CN1C(=O)/C(=C/c2ccc3c(c2)OCO3)N=C1NC(=O)c1ccccc1 [IA33] | > 10000 nM | –
CCOC(=O)C(=O)NC1=N/C(=C\c2ccc3c(c2)OCO3)C(=O)N1C [IA35] | > 10000 nM | –
CSC1=N/C(=C\c2ccccc2)C(=O)N1C [JR158] | > 10000 nM | –
CSC1=N/C(=C\c2ccccc2O)C(=O)N1C [JR159] | > 10000 nM | –
CSC1=N/C(=C\c2ccccn2)C(=O)N1C [JR160] | > 10000 nM | –
COc1cc(/C=C2\N=C(SC)N(C)C2=O)cc(OC)c1OC [JR161] | > 10000 nM | –

Compound | IC50 [1] | also measured
CSC1=N/C(=C\c2ccc(Br)cc2)C(=O)N1C [JR162] | > 10000 nM | –
CCCCN1C(=O)/C(=C/c2ccc3c(c2)OCO3)NC1=S [JR361] | > 10000 nM | –
O=C1/C(=C/c2ccc3c(c2)OCO3)NC(=S)N1c1ccccc1 [JR370] | > 10000 nM | –
CCOC(=O)CSC1=N/C(=C\c2ccc3c(c2)OCO3)C(=O)N1C [JR404] | 5800 nM | –
CCOC(=O)CSC1=N/C(=C\c2ccc3c(c2)OCO3)C(=O)N1c1ccccc1 [JR411] | > 10000 nM | –
CCCCN1C(=O)/C(=C/c2ccc3c(c2)OCO3)N=C1NCCC [JR442] | > 10000 nM | –
CCCNC1=N/C(=C\c2ccc3c(c2)OCO3)C(=O)N1c1ccccc1 [JR445] | > 10000 nM | –
CCCCN1C(=O)/C(=C/c2ccc3c(c2)OCO3)N=C1SC [JR448] | > 10000 nM | –
CN1C(=O)/C(=C/c2ccc3c(c2)OCO3)N=C1Nc1ccc(O)cc1 [MADE8] | 380 nM | –
CN1C(=O)/C(=C/c2ccc3c(c2)OCO3)N=C1NCc1ccc2c(c1)OCO2 [MADE12] | 4600 nM | –
CN1C(=O)/C(=C/c2ccc3c(c2)OCO3)N=C1NCCCCCO [MADE23] | – | IC50 (IC50 DYRK1A): 3000 nM
CN1C(=O)/C(=C/c2ccc3c(c2)OCO3)N=C1Nc1ccc2c(c1)OCCO2 [MADE29] | 190 nM | –
CN1C(=O)/C(=C/c2ccc3c(c2)OCO3)N=C1Nc1ccc2c(c1)OCO2 [MADE30] | 370 nM | –
CN1C(=O)/C(=C/c2ccc3c(c2)OCO3)N=C1Nc1ccccc1 [MADE32] | 400 nM | –
COc1ccc(NC2=N/C(=C\c3ccc4c(c3)OCO4)C(=O)N2C)cc1 [MADE39] | – | IC50 (IC50 DYRK1A): 270 nM
CN1C(=O)/C(=C/c2ccc3c(c2)OCO3)N=C1Nc1ccccc1 [MADE42] | 430 nM | –
O=C1NC(Nc2ccc(O)cc2)=N/C1=C\c1ccc2c(c1)OCO2 [MADE48] | 84 nM | –
CN1C(=O)/C(=C/c2ccc3c(c2)OCO3)N=C1c1ccccc1 [NL39, (5Z)-5-(1,3-Benzodioxol-5-ylmethylene)-3-methyl-2-phenyl-3,5-dihydro-4H-imidazol-4-one] | 3200 nM | –
CN1C(=O)/C(=C/c2ccc3c(c2)OCO3)N=C1c1ccc2c(c1)OCO2 [NL88A] | 220 nM | –
CN1C(=O)/C(=C/c2ccc3c(c2)OCO3)N=C1c1ccc(O)cc1 [NL96] | 430 nM | –
CN1C(=O)/C(=C/c2ccc3c(c2)OCO3)N=C1NCCCO [SA142] | 1300 nM | –
CCCCN1C(=O)/C(=C/c2ccc3c(c2)OCO3)N=C1NCCCO [SA164] | > 10000 nM | –
COCCSC1=N/C(=C\c2ccc3c(c2)OCO3)C(=O)N1C [SA197] | 2500 nM | –
CSC1=N/C(=C\c2ccc3c(c2)OCO3)C(=O)N1 [ST105] | 680 nM | –
CCSC1=N/C(=C\c2ccc3c(c2)OCO3)C(=O)N1 [ST120] | 440 nM | –
CCCSC1=N/C(=C\c2ccc3c(c2)OCO3)C(=O)N1 [ST122] | 440 nM | –
